# In patent US4345938A, “Herbicidal 2-haloacetanilides” (Monsanto Company, priority 1980, dated 1982):
# Read-outs that look alike come from different tables or passages of the source.
# Assays:
# Type in all cases: in vivo
# Echinochloa crus-galli [1] = assay: Greenhouse transplant rice test, EC; conditions: about 3 WAT, read-out: Percent Inhibition, EC
# Description: (§1) The test procedure used in this greenhouse test is as follows: Ray silt loam top soil containing about 0.05% by weight of krillium and sifted through a […] screen is fumigated about 5-10 days prior to use. Pots are then filled with said Ray silt loam soil to a level to allow for a 1 in. (2.54 cm) flooding depth. Rice plants (Bluebelle) of 2 to 3 weeks age are transplanted to the pots and bulbs or seeds of the test weeds also planted in the pots. The pots are then flooded and the test chemical applied to the surface of the flood water. The flood water is reduced to allow for germination of the Echinochloa crus-galli (barnyardgrass) seed and subsequently reflooded and maintained in that condition. Observations of percent inhibition using a scale of 0-100% are made about 3 weeks after transplant (WAT).
# (§2) The test data in Table III for all compounds was obtained under identical test conditions. The weeds used in the tests herein have the following abbreviations in the tables: Echinochloa crus-galli (EC), Monochloria vaginalis (MV), Cyperus Serotinus (CS), Eleocharis Kuroguwai (EK) and Sagittaria trifolia (ST).
# Monochoria vaginalis [2] = assay: Greenhouse transplant rice test, MV; conditions: Pontederia vaginalis, about 3 WAT, read-out: Percent Inhibition, MV
# Description: as §1, §2
# Cyperus serotinus = assay: Field transplant rice test, applied 9 DAT, CS; conditions: for inhibition at 375 g/ha / inhibition at 750 g/ha / inhibition at 1500 g/ha / inhibition at 3000 g/ha: Cyperus serotinus, 216 h, read-out: Percent Inhibition, CS; for inhibition at 375 g/ha: 0.375 Kg/Ha; for inhibition at 750 g/ha: 0.75 Kg/Ha; for inhibition at 1500 g/ha: 1.5 Kg/Ha; for inhibition at 3000 g/ha: 3.0 Kg/Ha
# Description: (§3) In the discussion of data below, occasional reference is made to herbicide application rates symbolized as "GR15 " and "GR85 "; these rates are given in kilograms per hectare (kg/ha) which are convertible into pounds per acre (lbs/A) by dividing the kg/ha rate by 1.12.
# (§4) A further guide to the effectiveness of a chemical as a selective herbicide is the "selectivity factor" ("SF") for a herbicide in given crops and weeds. The selectivity factor is a measure of the relative degree of crop safety and weed injury and is expressed in terms of the GR15 /GR85 ratio, i.e., the GR15 rate for the crop divided by the GR85 rate for the weed, both rates in kg/ha (lb/A.)
# as §2
# (§5) In further comparative tests, a preferred compound of this invention (Example 1) was tested in the field with prior art Compounds A-D. These tests were conducted under conditions reflecting herbicide application times generally favorable to all herbicides in the test. The timing of application of herbicides to transplant rice is very important, whether, as in some instances, prior to transplanting the rice; in other instances, at the time of transplanting or else after transplanting. Application times are conventionally referred to as "days before transplant" (DBT) or "days after transplant" ("DAT"). The field test data in Table IV was obtained from a test in which the herbicides were applied at the time of transplant, i.e., "0 DAT", with observations being made weekly up to six weeks after transplant ("WAT") beginning at two weeks after transplant; for illustrative and representative purposes, only the early, middle and late period observations, i.e., 2 WAT, 4 WAT and 6 WAT, are shown in Table IV. The data in Table IV is for rates of application common to all herbicides in the test, i.e., from 3.0 kg/ha (2.67 lb/A) down to 0.375 kg/ha (0.34 lb/A). All herbicides were applied at their actual or expected use rates, i.e., as granules containing 2.5% by weight herbicide for the compound of Example 1, Compounds B, C and D and 5.0% by weight for Compound A.
# (§6) In Table V are presented field data showing the relative performance of the compound of Example 1 and Compounds A-D applied 9 DAT, with observations being made weekly from 3 WAT to 7 WAT; again, for illustrative and representative purposes, only the early, middle and late period observations are reported in Table V, the herbicide rates and concentrations of active ingredients the same as is shown in Table IV.
# Eleocharis kuroguwai [3] = assay: Field transplant rice test, applied 0 DAT, EK; conditions: 0 h, read-out: Percent Inhibition, EK; for inhibition at 375 g/ha: 0.375 Kg/Ha; for inhibition at 750 g/ha: 0.75 Kg/Ha; for inhibition at 1500 g/ha: 1.5 Kg/Ha; for inhibition at 3000 g/ha: 3.0 Kg/Ha
# Description: as §2, §5
# Monochoria vaginalis [4] = assay: Field transplant rice test, applied 9 DAT, MV; conditions: for inhibition at 375 g/ha / inhibition at 750 g/ha / inhibition at 1500 g/ha / inhibition at 3000 g/ha: Pontederia vaginalis, 216 h, read-out: Percent Inhibition, MV; for inhibition at 375 g/ha: 0.375 Kg/Ha; for inhibition at 750 g/ha: 0.75 Kg/Ha; for inhibition at 1500 g/ha: 1.5 Kg/Ha; for inhibition at 3000 g/ha: 3.0 Kg/Ha
# Description: as §3, §4, §2, §5, §6
# Eleocharis kuroguwai [5] = assay: Field transplant rice test, applied 9 DAT, EK; conditions: for inhibition at 375 g/ha / inhibition at 750 g/ha / inhibition at 1500 g/ha / inhibition at 3000 g/ha: Eleocharis kuroguwai, 216 h, read-out: Percent Inhibition, EK; for inhibition at 375 g/ha: 0.375 Kg/Ha; for inhibition at 750 g/ha: 0.75 Kg/Ha; for inhibition at 1500 g/ha: 1.5 Kg/Ha; for inhibition at 3000 g/ha: 3.0 Kg/Ha
# Description: as §3, §4, §2, §5, §6
# Echinochloa crus-galli [6] = assay: Field transplant rice test, applied 9 DAT, EC; conditions: for inhibition at 375 g/ha / inhibition at 750 g/ha / inhibition at 1500 g/ha / inhibition at 3000 g/ha: Echinochloa crus-galli, 216 h, read-out: Percent Inhibition, EC; for inhibition at 375 g/ha: 0.375 Kg/Ha; for inhibition at 750 g/ha: 0.75 Kg/Ha; for inhibition at 1500 g/ha: 1.5 Kg/Ha; for inhibition at 3000 g/ha: 3.0 Kg/Ha
# Description: as §3, §4, §2, §5, §6
smiles,measurement,setting,value
"CCCCOc1cccc(CC)c1N(CC)C(=O)CCl [Example 2, N-ethyl-2'-n-butoxy-6'-ethyl-2-chloroacetanilide]",inhibition at 280 g/ha,Echinochloa crus-galli [1]; 0.28 Kg/Ha,100%
same,inhibition at 560 g/ha,Echinochloa crus-galli [1]; 0.56 Kg/Ha,100%
same,inhibition at 1120 g/ha,Echinochloa crus-galli [1]; 1.12 Kg/Ha,100%
same,inhibition at 2240 g/ha,Echinochloa crus-galli [1]; 2.24 Kg/Ha,100%
same,inhibition at 280 g/ha,Monochoria vaginalis [2]; 0.28 Kg/Ha,100%
same,inhibition at 560 g/ha,Monochoria vaginalis [2]; 0.56 Kg/Ha,100%
same,inhibition at 1120 g/ha,Monochoria vaginalis [2]; 1.12 Kg/Ha,100%
same,inhibition at 2240 g/ha,Monochoria vaginalis [2]; 2.24 Kg/Ha,100%
"CCCOCCN(C(=O)CCl)c1c(CC)cccc1CC [Compound D, 2',6'-diethyl-N-(n-propoxyethyl)-2-chloroacetanilide]",inhibition at 375 g/ha,Cyperus serotinus; 3 WAT,92%
same,inhibition at 375 g/ha,Cyperus serotinus; 5 WAT,87%
same,inhibition at 375 g/ha,Cyperus serotinus; 7 WAT,67%
same,inhibition at 750 g/ha,Cyperus serotinus; 3 WAT,77%
same,inhibition at 750 g/ha,Cyperus serotinus; 5 WAT,67%
same,inhibition at 750 g/ha,Cyperus serotinus; 7 WAT,33%
same,inhibition at 1500 g/ha,Cyperus serotinus; 3 WAT,77%
same,inhibition at 1500 g/ha,Cyperus serotinus; 5 WAT,77%
same,inhibition at 1500 g/ha,Cyperus serotinus; 7 WAT,100%
same,inhibition at 3000 g/ha,Cyperus serotinus; 3 WAT,90%
same,inhibition at 3000 g/ha,Cyperus serotinus; 5 WAT,100%
same,inhibition at 3000 g/ha,Cyperus serotinus; 7 WAT,100%
same,"selectivity factor (GR15/GR85), CS in transplant rice",Cyperus serotinus; between 3 WAT and 7 WAT,1
same,inhibition at 375 g/ha,Eleocharis kuroguwai [3]; 2 WAT,62%
same,inhibition at 375 g/ha,Eleocharis kuroguwai [3]; 4 WAT,20%
same,inhibition at 375 g/ha,Eleocharis kuroguwai [3]; 6 WAT,0%
same,inhibition at 750 g/ha,Eleocharis kuroguwai [3]; 2 WAT,63%
same,inhibition at 750 g/ha,Eleocharis kuroguwai [3]; 4 WAT,40%
same,inhibition at 750 g/ha,Eleocharis kuroguwai [3]; 6 WAT,10%
same,inhibition at 1500 g/ha,Eleocharis kuroguwai [3]; 2 WAT,70%
same,inhibition at 1500 g/ha,Eleocharis kuroguwai [3]; 4 WAT,67%
same,inhibition at 1500 g/ha,Eleocharis kuroguwai [3]; 6 WAT,47%
same,inhibition at 3000 g/ha,Eleocharis kuroguwai [3]; 2 WAT,85%
same,inhibition at 3000 g/ha,Eleocharis kuroguwai [3]; 4 WAT,75%
same,inhibition at 3000 g/ha,Eleocharis kuroguwai [3]; 6 WAT,22%
same,inhibition at 375 g/ha,Monochoria vaginalis [4]; 3 WAT,95%
same,inhibition at 375 g/ha,Monochoria vaginalis [4]; 5 WAT,98%
same,inhibition at 375 g/ha,Monochoria vaginalis [4]; 7 WAT,95%
same,inhibition at 750 g/ha,Monochoria vaginalis [4]; 3 WAT,100%
same,inhibition at 750 g/ha,Monochoria vaginalis [4]; 5 WAT,87%
same,inhibition at 750 g/ha,Monochoria vaginalis [4]; 7 WAT,100%
same,inhibition at 1500 g/ha,Monochoria vaginalis [4]; 3 WAT,100%
same,inhibition at 1500 g/ha,Monochoria vaginalis [4]; 5 WAT,100%
same,inhibition at 1500 g/ha,Monochoria vaginalis [4]; 7 WAT,100%
same,inhibition at 3000 g/ha,Monochoria vaginalis [4]; 3 WAT,100%
same,inhibition at 3000 g/ha,Monochoria vaginalis [4]; 5 WAT,100%
same,inhibition at 3000 g/ha,Monochoria vaginalis [4]; 7 WAT,100%
same,"selectivity factor (GR15/GR85), MV in transplant rice",Monochoria vaginalis [4]; between 3 WAT and 7 WAT,8
same,"selectivity factor (GR15/GR85), EK in transplant rice",Eleocharis kuroguwai [5]; 3 WAT,about 1
same,inhibition at 375 g/ha,Eleocharis kuroguwai [5]; 3 WAT,50%
same,inhibition at 375 g/ha,Eleocharis kuroguwai [5]; 5 WAT,23%
same,inhibition at 375 g/ha,Eleocharis kuroguwai [5]; 7 WAT,0%
same,inhibition at 750 g/ha,Eleocharis kuroguwai [5]; 3 WAT,45%
same,inhibition at 750 g/ha,Eleocharis kuroguwai [5]; 5 WAT,20%
same,inhibition at 750 g/ha,Eleocharis kuroguwai [5]; 7 WAT,0%
same,inhibition at 1500 g/ha,Eleocharis kuroguwai [5]; 3 WAT,52%
same,inhibition at 1500 g/ha,Eleocharis kuroguwai [5]; 5 WAT,30%
same,inhibition at 1500 g/ha,Eleocharis kuroguwai [5]; 7 WAT,0%
same,inhibition at 3000 g/ha,Eleocharis kuroguwai [5]; 3 WAT,84%
same,inhibition at 3000 g/ha,Eleocharis kuroguwai [5]; 5 WAT,78%
same,inhibition at 3000 g/ha,Eleocharis kuroguwai [5]; 7 WAT,45%
same,inhibition at 375 g/ha,Echinochloa crus-galli [6]; 3 WAT,62%
same,inhibition at 375 g/ha,Echinochloa crus-galli [6]; 5 WAT,48%
same,inhibition at 375 g/ha,Echinochloa crus-galli [6]; 7 WAT,57%
same,inhibition at 750 g/ha,Echinochloa crus-galli [6]; 3 WAT,88%
same,inhibition at 750 g/ha,Echinochloa crus-galli [6]; 5 WAT,92%
same,inhibition at 750 g/ha,Echinochloa crus-galli [6]; 7 WAT,88%
same,inhibition at 1500 g/ha,Echinochloa crus-galli [6]; 3 WAT,78%
same,inhibition at 1500 g/ha,Echinochloa crus-galli [6]; 5 WAT,75%
same,inhibition at 1500 g/ha,Echinochloa crus-galli [6]; 7 WAT,78%
same,inhibition at 3000 g/ha,Echinochloa crus-galli [6]; 3 WAT,100%
same,inhibition at 3000 g/ha,Echinochloa crus-galli [6]; 5 WAT,100%
same,inhibition at 3000 g/ha,Echinochloa crus-galli [6]; 7 WAT,100%
same,"selectivity factor (GR15/GR85), EC in transplant rice",Echinochloa crus-galli [6]; between 3 WAT and 7 WAT,1
